BindingDB's records for doi:10.3109/14756366.2010.482529 (Yonsei University, 2010)

Target: T1, Polyphenol oxidase 1 (White button mushroom, UniProt Q00024)
T1 sequence (Q00024 whole entry): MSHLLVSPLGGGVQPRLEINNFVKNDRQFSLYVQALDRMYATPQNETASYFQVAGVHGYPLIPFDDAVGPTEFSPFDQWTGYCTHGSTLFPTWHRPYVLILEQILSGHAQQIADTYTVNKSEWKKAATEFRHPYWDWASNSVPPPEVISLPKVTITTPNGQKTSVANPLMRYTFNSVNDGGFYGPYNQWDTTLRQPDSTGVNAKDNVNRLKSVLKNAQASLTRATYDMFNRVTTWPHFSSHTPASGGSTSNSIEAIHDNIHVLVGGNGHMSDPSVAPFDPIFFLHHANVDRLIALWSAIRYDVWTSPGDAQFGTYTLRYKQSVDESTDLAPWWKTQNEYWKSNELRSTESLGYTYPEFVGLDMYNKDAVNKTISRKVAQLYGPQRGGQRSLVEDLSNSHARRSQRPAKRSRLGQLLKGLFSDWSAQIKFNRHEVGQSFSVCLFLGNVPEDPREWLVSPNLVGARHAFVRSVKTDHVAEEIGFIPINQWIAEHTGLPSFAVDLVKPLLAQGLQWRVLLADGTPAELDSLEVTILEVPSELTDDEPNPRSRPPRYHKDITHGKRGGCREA
Assay: In Vitro Tyrosinase Inhibition Assay
Conditions: pH 6.8; 25 °C
Method: Tyrosinase inhibition assays were performed in a 96-well microplate format using the SpectraMax 340 microplate reader (Molecular Devices, CA) according to the method developed by Hearing [Khan et al., Pure Appl. […] First the samples were screened for the o-diphenolase inhibitory activity of mushroom tyrosinase (Lyophilised, ≥2000 units/mg, Sigma, […], USA) using L-3,4-dihydroxyphenylalanine (L-DOPA) (Sigma) as substrate. All the active samples from the preliminary screening were subjected to half maximal inhibitory concentration (IC50) studies. The samples were dissolved in methanol/DMSO to a final concentration of 0.5%. […] Then the L-DOPA (0.5 mM) was added to the reaction mixture and the reaction was monitored by measuring the change in absorbance at 475 nm (at 37°C) due to the formation of the DOPA chrome for 10 min.

Structure (SMILES)	IC50 [µM]
N[C@@H](Cn1ccc(=O)c(O)c1)C(=O)O	3.68
CC(C)=CCOC(=O)c1ccccc1 [3-Methyl-2-butenylbenzoate (1)]	83.4
O=C(NCCO)c1cc([N+](=O)[O-])cc([N+](=O)[O-])c1 [N-(2-Hydroxy-ethyl)-3,5-dinitro-benzamide (7)]	1.09

The next lines start with the values.

IC50 [µM]	Structure (SMILES)
14.8	CC(C)=CCOC(=O)c1ccc(O)cc1 [3-Methyl-2-butenyl-4-hydroxybenzoate (2)]
29.7	O=C(Oc1ccc([N+](=O)[O-])cc1)c1ccc([N+](=O)[O-])cc1C(F)(F)F [4-Nitro-phenyl-(4-nitro-2-trifluoromethyl)-benzoate (6)]
3.08	O=C(NCCBr)c1cc([N+](=O)[O-])cc([N+](=O)[O-])c1 [N-(2-Bromo-ethyl)-3,5-dinitro-benzamide (8)]
11.8	CCNC(=O)c1ccccc1 [N-Ethyl-benzamide (10)]
2.09	Cc1ccc(C(=O)N(C)O)cc1 [N-Hydroxy-4,N-dimethyl-benzamide (9)]
